Test results as given in ChEMBL document CHEMBL6109116, “Peripherally Restricted Fused Heterocyclic Peptidomimetic Multifunctional Opioid Agonists as Novel, Potent Analgesics” (ACS Med Chem Lett, 2025).
pKi: −log10 of the molar value. Calls of active or inactive are those of the source. No cut-off for these calls is given here.

Tests used:
[1] = target: Delta-type opioid receptor (Rattus norvegicus, UniProt P33533); assay: Displacement of [3H]-DPDPE from rat cortical membrane DOR assessed as inhibition constant incubated for 2.5 hrs by Wallac Betaplate liquid scintillation counting analysis; type: cell membranes, Cortex
Delta-type opioid receptor, sequence (P33533 whole entry): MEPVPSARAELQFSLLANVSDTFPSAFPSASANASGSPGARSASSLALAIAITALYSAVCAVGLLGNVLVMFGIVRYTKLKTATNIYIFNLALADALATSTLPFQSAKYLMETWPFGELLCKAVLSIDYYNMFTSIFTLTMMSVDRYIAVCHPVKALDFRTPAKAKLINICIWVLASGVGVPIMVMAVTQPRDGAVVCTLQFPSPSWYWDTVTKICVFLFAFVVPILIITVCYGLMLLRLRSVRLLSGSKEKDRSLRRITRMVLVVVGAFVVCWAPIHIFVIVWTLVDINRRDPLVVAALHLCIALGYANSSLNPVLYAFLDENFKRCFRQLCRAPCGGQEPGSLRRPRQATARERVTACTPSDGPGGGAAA

Mu-type opioid receptor = Mu-type opioid receptor (Rattus norvegicus, UniProt P33535); assay: Displacement of [3H]-DAMGO from rat cortical membrane MOR assessed as inhibition constant incubated for 2 hrs by Wallac Betaplate liquid scintillation counting analysis; type: cell membranes, Cortex
Mu-type opioid receptor, sequence (P33535 whole entry): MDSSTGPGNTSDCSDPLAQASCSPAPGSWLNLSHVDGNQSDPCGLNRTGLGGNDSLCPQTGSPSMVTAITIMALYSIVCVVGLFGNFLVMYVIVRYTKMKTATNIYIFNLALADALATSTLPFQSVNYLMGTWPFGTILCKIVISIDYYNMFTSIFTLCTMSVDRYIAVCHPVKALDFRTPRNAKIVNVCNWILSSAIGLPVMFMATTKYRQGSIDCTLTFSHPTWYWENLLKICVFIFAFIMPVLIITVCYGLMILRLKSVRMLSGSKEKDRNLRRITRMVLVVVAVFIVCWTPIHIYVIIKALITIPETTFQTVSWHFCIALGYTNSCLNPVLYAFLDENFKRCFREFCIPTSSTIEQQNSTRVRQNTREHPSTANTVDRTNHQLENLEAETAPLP

[2] = target: Kappa-type opioid receptor (Cavia porcellus, UniProt P41144); assay: Displacement of [3H]U69593 from guinea pig KOR assessed as inhibition constant incubated for 2 hrs by Wallac Betaplate liquid scintillation counting analysis
Kappa-type opioid receptor, sequence (P41144 whole entry): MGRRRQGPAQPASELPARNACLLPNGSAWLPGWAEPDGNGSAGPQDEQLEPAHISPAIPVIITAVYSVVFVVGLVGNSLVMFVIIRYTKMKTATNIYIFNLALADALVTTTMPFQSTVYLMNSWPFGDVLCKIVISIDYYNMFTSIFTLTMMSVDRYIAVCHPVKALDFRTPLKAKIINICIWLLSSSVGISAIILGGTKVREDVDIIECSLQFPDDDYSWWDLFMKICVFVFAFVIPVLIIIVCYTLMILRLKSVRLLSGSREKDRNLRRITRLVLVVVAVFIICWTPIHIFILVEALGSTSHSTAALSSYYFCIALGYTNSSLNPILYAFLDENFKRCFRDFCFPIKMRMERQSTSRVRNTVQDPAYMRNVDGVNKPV

Mus musculus [3] = assay: Antinociceptive activity in male C57BL/6J mouse assessed as peripheral restriction at 15 mg/kg, ip pre-treated with naloxone methiodide at 30 mg/kg, SC for 30 min by 55 degreeC warm-water tail-withdrawal assay; type: functional
[4] = Toxicity in C57BL/6J mouse assessed as effect on locomotor activity at 15 mg/kg, ip measured up to 120 min; type: organism-based; settings: in vivo, 2 h
[5] = Toxicity in C57BL/6J mouse assessed as respiratory depression at 15 mg/kg, ip measured after 20 mins; type: organism-based; settings: in vivo
Mus musculus [6] = species on record: Mus musculus; assay: Antinociceptive activity in male C57BL/6J mouse measured after 10 min by 55 degreeC warm-water tail-withdrawal assay; type: functional
[7] = target: Mu-type opioid receptor (Rattus norvegicus) (UniProt P33535); assay: Partial agonist activity at rat MOR extracted from CHO cell membrane assessed as stimulation of [35S]GTPgammaS binding at 10 uM incubated for 60 mins by liquid scintillation counting assay; type: functional, cell membranes; settings: filed as partial agonist
Mu-type opioid receptor (Rattus norvegicus), sequence (P33535 whole entry): as the sequence (P33535 whole entry) above

Mus musculus [8] = assay: Antinociceptive activity in male C57BL/6J mouse at 10 nmol, ICV administered for 8 hrs by 55 degreeC warm-water tail-withdrawal assay; type: functional, organism-based
Mus musculus [9] = assay: Antinociceptive activity in KOR knockout male C57BL/6J mouse model at 10 nmol, ICV administered for 10 mins by 55 degreeC warm-water tail-withdrawal assay; type: functional, organism-based
Mus musculus [10] = assay: Antinociceptive activity in male C57BL/6J mouse assessed as peripheral restriction at 15 mg/kg, ip by 55 degreeC warm-water tail-withdrawal assay; type: functional
Mus musculus [11] = assay: Antinociceptive activity in MOR knockout male C57BL/6J mouse model at 10 nmol, ICV administered for 10 mins by 55 degreeC warm-water tail-withdrawal assay; type: functional, organism-based
Mus musculus [12] = assay: Antinociceptive activity in male C57BL/6J mouse preadministered with compound for 10 mins followed by acetic acid administration and measured after 15 to 30 min by Acetic acid stretching assay (AcAS); type: functional; settings: time 25-40 min
[13] = target: Kappa-type opioid receptor (Homo sapiens) (UniProt P41145); assay: Partial agonist activity at human KOR extracted from CHO cell membrane assessed as stimulation of [35S]GTPgammaS binding at 1 to 10 uM incubated for 60 mins by liquid scintillation counting assay; type: functional, cell membranes; settings: filed as partial agonist, dose 1-10 µM
Kappa-type opioid receptor (Homo sapiens), sequence (P41145 whole entry): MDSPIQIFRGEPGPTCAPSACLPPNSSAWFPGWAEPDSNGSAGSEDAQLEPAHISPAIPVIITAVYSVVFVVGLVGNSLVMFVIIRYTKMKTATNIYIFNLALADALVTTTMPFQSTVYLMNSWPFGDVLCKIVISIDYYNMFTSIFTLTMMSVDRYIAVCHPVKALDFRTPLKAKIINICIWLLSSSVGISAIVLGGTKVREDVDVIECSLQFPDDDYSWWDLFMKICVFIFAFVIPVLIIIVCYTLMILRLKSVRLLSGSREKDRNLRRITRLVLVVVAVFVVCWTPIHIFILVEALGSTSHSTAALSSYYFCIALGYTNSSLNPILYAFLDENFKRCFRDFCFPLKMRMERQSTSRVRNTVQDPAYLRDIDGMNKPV

[14] = target: Delta-type opioid receptor (Mus musculus) (UniProt P32300); assay: Partial agonist activity at mouse DOR extracted from CHO cell membrane assessed as stimulation of [35S]GTPgammaS binding at 1 to 10 uM incubated for 60 mins by liquid scintillation counting assay; type: functional, cell membranes; settings: filed as partial agonist, dose 1-10 µM
Delta-type opioid receptor (Mus musculus), sequence (P32300 whole entry): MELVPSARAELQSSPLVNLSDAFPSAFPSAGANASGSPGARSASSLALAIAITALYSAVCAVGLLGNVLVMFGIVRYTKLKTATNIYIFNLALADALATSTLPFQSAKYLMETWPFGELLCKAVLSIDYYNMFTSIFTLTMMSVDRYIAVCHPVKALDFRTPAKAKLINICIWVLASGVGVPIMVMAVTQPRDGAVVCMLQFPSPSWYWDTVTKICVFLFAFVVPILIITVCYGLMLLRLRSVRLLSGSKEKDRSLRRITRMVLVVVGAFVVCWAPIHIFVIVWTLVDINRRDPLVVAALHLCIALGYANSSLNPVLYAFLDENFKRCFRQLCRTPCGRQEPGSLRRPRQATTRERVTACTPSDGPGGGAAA

Mus musculus [15] = assay: Antinociceptive activity in male C57BL/6J mouse assessed as peripheral restriction at 15 mg/kg, ip pre-treated with naloxone methiodide at 30 nmol, ICV for 30 min by 55 degreeC warm-water tail-withdrawal assay; type: functional
Mus musculus [16] = assay: Antinociceptive activity in wild type male C57BL/6J mouse model at 10 nmol, ICV preadministered with naltrindole for 20 mins followed by compound administration for 10 mins; type: functional, organism-based
[17] = Toxicity in C57BL/6J mouse assessed as increase in ambulation at 15 mg/kg, ip measured up to 120 min; type: organism-based; settings: in vivo, 2 h
Mus musculus [18] = assay: Antinociceptive activity in male C57BL/6J mouse at 15 mg/kg, po by 55 degreeC warm-water tail-withdrawal assay; type: functional, organism-based; settings: time <= 60.0 min
[19] = Selectivity ratio of ED50 for antinociceptive activity in male C57BL/6J mouse at 10 mg/kg, ip measured after 10 min by 55 degreeC warm-water tail-withdrawal assay to ED50 for antinociceptive activity in male C57BL/6J mouse preadministered with compound for 10 mins followed by acetic acid administration and measured after 15 to 30 min by Acetic acid stretching assay (AcAS); type: functional
[20] = target: Mu-type opioid receptor (Rattus norvegicus) (UniProt P33535); assay: Partial agonist activity at rat MOR extracted from CHO cell membrane assessed as stimulation of [35S]GTPgammaS binding at 1 to 10 uM incubated for 60 mins by liquid scintillation counting assay; type: functional, cell membranes; settings: dose 1-10 µM
[21] = Toxicity in male C57BL/6J mouse assessed as lethality up to 30 mg/kg, ip measured after 10 min; type: organism-based; settings: in vivo
[22] = target: Delta-type opioid receptor (Mus musculus) (UniProt P32300); assay: Agonist activity at mouse DOR extracted from CHO cell membrane assessed as stimulation of [35S]GTPgammaS binding at 1 to 10 uM incubated for 60 mins by liquid scintillation counting assay; type: functional, cell membranes; settings: filed as agonist, dose 1-10 µM
Mus musculus [23] = assay: Antinociceptive activity in male C57BL/6J mouse at 10 mg/kg, ip measured after 10 min by 55 degreeC warm-water tail-withdrawal assay; type: functional, organism-based
Mus musculus [24] = assay: Antinociceptive activity in male C57BL/6J mouse assessed as peripheral restriction at 30 mg/kg, ip pre-treated with naloxone methiodide at 30 mg/kg, SC for 30 min by 55 degreeC warm-water tail-withdrawal assay; type: functional
Mus musculus [25] = assay: Antinociceptive activity in male C57BL/6J mouse at 30 mg/kg, po by 55 degreeC warm-water tail-withdrawal assay; type: functional, organism-based; settings: time <= 60.0 min
[26] = Toxicity in C57BL/6J mouse assessed as effect on locomotor activity at 30 mg/kg, ip measured up to 120 min; type: organism-based; settings: in vivo, 2 h
[27] = Toxicity in C57BL/6J mouse assessed as increase in ambulation at 30 mg/kg, ip measured up to 120 min; type: organism-based; settings: in vivo, 2 h
Mus musculus [28] = assay: Antinociceptive activity in male C57BL/6J mouse assessed as peripheral restriction at 30 mg/kg, ip by 55 degreeC warm-water tail-withdrawal assay; type: functional
[29] = Toxicity in C57BL/6J mouse assessed as respiratory depression at 30 mg/kg, ip measured after 20 mins; type: organism-based; settings: in vivo
Mus musculus [30] = assay: Antinociceptive activity in male C57BL/6J mouse assessed as peripheral restriction at 30 mg/kg, ip pre-treated with naloxone methiodide at 30 nmol, ICV for 30 min by 55 degreeC warm-water tail-withdrawal assay; type: functional

CC(C)C[C@H]1CN=C2C=C3N4CCC[C@H]4CN3[C@@H](Cc3ccc(O)cc3)CN21
pKi [1]: 8.00 | pKi (Mu-type opioid receptor): 6.77 | pKi [2]: 7.40

CC(C)C[C@H]1CN2C(=CC3=NC[C@@H](C(C)C)N3C[C@H]2Cc2ccc(O)cc2)N1CCc1ccccc1
pKi [1]: 9.00 | pKi [2]: 7.37

CC(C)[C@H]1CN=C2C=C3N(CCN4CCOCC4)[C@@H](Cc4ccc(O)cc4)CN3[C@@H](Cc3ccc(O)cc3)CN21
pKi [1]: 7.96 | pKi (Mu-type opioid receptor): 7.29 | pKi [2]: 7.39

CN1CCN(CCN2C(=N)N([C@@H](CCCNC(=N)N)CN3C(=N)NC[C@@H]3Cc3ccc(O)cc3)C[C@@H]2Cc2ccc(O)cc2)CC1
Activity (Mus musculus [3]): 2.5% | Activity [4]: Non-toxic | Activity [5]: Non-toxic | ED50 (Mus musculus [6]): 3.9 mg/kg | Activity [7]: Active | Activity (Mus musculus [8]): Active; Comparable To Morphine And U50,491 | pKi [1]: 7.40 | Activity (Mus musculus [9]): inactive | Activity (Mus musculus [10]): 89.7% | Activity (Mus musculus [11]): inactive | ED50 (Mus musculus [12]): 4.97 mg/kg | pKi (Mu-type opioid receptor): 6.71 | pKi [2]: 7.06 | Activity [13]: Active | Activity [14]: Active; Weak Partial Agonism Observed | Activity (Mus musculus [15]): 10.1% | Activity (Mus musculus [16]): inactive | Activity [17]: Non-toxic | Activity (Mus musculus [18]): Time-dependent-effect | Ratio ED50 [19]: 0.78

CC(C)C[C@H]1CN2C(=CC3=NC[C@H](CN(C)C)N3C[C@@H]2Cc2ccc(O)cc2)N1CCc1ccccc1
Activity [20]: Not active; No Significant Activity | Activity (Mus musculus [8]): Active; Comparable To Morphine And U50,490 | pKi [1]: 8.30 | Activity [21]: Toxic | Activity (Mus musculus [9]): inactive | Activity [22]: Active | Activity (Mus musculus [23]): Active; Minimal Antinociception Observed | Activity (Mus musculus [11]): inactive | pKi (Mu-type opioid receptor): 7.00 | pKi [2]: 7.33 | Activity [13]: Active | Activity (Mus musculus [16]): inactive

CC(C)[C@H]1CN=C2C=C3N(CCc4ccccc4)CC[C@H](N(C)C)CN3[C@@H](Cc3ccc(O)cc3)CN21
Activity [20]: Not active; No Significant Activity | ED50 (Mus musculus [6]): 14 mg/kg | Activity (Mus musculus [8]): Active; Comparable To Morphine And U50,489 | pKi [1]: 7.70 | Activity (Mus musculus [24]): 3.5% | Activity (Mus musculus [25]): Time-dependent-effect | Activity [26]: Non-toxic | Activity (Mus musculus [9]): inactive | Activity [27]: Non-toxic | Activity (Mus musculus [28]): 87.9% | Activity [29]: Non-toxic | Activity (Mus musculus [11]): inactive | ED50 (Mus musculus [12]): 0.67 mg/kg | pKi (Mu-type opioid receptor): 6.37 | pKi [2]: 7.60 | Activity [13]: Active | Activity [14]: Active; Weak Partial Agonism Observed | Activity (Mus musculus [30]): 59.1% | Activity (Mus musculus [16]): inactive | Ratio ED50 [19]: 20.95

CC(C)[C@H]1CN=C2C=C3N(CCc4ccccc4)[C@@H](CCN(C)C)CN3[C@@H](Cc3ccc(O)cc3)CN21
pKi [1]: 8.10 | pKi (Mu-type opioid receptor): 7.47 | pKi [2]: 7.70

CC(C)C[C@H]1CN=C2C=C3N(CCN4CCOCC4)[C@@H](Cc4ccc(O)cc4)CN3[C@@H](Cc3ccc(O)cc3)CN21
pKi [1]: 7.38 | pKi (Mu-type opioid receptor): 6.97 | pKi [2]: 7.70
